Experimental data from patent US10822448B2, “Dynamic urea bonds with fast hydrolytic kinetics for polymers” (THE BOARD OF TRUSTEES OF THE UNIVERSITY OF ILLINOIS, priority 2016, dated 2020).
Read-outs that look alike come from different tables or passages of the source.

Key:
[1] = HPLC analysis of Ph-tBEU hydrolysis kinetics in 1:1 DMSO-aqueous buffer at various pH; type: physicochemical
Procedure: FIGS. 1A to 1C depict the hydrolysis of phenyl-N-tetrabutyl-N-ethyl urea (Ph-tBEU) in 1:1 DMSO-aqueous buffer at various pH conditions at 37° C. as analyzed by HPLC. […] The dotted line marks the measured k−1 of the Ph-tBEU under the same condition through exchange with 10 equivalents of t-butyl amine.
The hydrolysis of aryl tBEU under different pH conditions was then studied in 1:1 DMSO-aqueous buffer solution at 23° C. […] Kinetic analysis of the hydrolytic kinetics confirmed that the overall urea degradation rate is determined by the urea dissociation and can be expressed as
HPLC Analysis of pH-tBEU Hydrolysis Kinetics in 50:50 DMSO-H2O at 37° C.
Ph-tBEU stock solution was prepared in DMSO as 2 mg/mL. The solution was diluted with 1:1 DMSO/buffer to 20 μg/mL ([…]) and incubated at 37° C. At specified time, the solution was analyzed by HPLC to quantify the remaining tBEU content by standard calibration curve (λabs=264 nm).
The standard sample of Ph-tBEU was prepared by diluting the stock solution with acetonitrile to a 2-fold serial dilution and analyzed instantly after preparation. The pH 1, 7, 10 buffers were prepared by adding acid/base to 1*PBS solution. pH 4 buffer was prepared by citric acid-Na2HPO4 (0.1 M). The pH of all the buffers were confirmed by pH meter prior to conducting the experiments.

[2] = Equilibrium (binding) constant Keq of aryl hindered ureas by 1H NMR amine exchange in d-chloroform; type: physicochemical; conditions: room temperature
Procedure: (§1) We designed a set of aryl ureas with distinguished electronic effect on the conjugated phenyl ring (Table 1) and the corresponding Keq were studied by ^1H NMR through exchanging of the urea with a set of bulky amines in d-chloroform. The equilibrium constant of the aryl urea bond increases as the bulkiness of the substitution on the amine decreases. […] The dissociation constant k−1 was measured by exchange study of the ureas with another amine and calculated through linear regression. Remarkably, the amine exchange of the tBEU could reach equilibrium within 20 minutes at room temperature in d-chloroform. The k−1 of tBEU with aryl substitution is two orders of magnitudes larger than the reported aliphatic urea (Table 1) and among the fastest dynamic chemistries reported so far. […] The substituent on the aryl group can remotely affect the HUB through electronic effects, thus offering an extra tunability on the Keq and k−1 of the bond, which is unprecedented in hindered urea chemistry. The large value of Keq also makes it possible to prepare large molecular weight aromatic hindered urea materials with quantitative conversion.
We designed a set of aryl ureas with distinguished electronic effect on the conjugated phenyl ring (Table 1) and the corresponding Keq were studied by ^1H NMR through exchanging of the urea with a set of bulky amines in d-chloroform. The equilibrium constant of the aryl urea bond increases as the bulkiness of the substitution on amine increases. […] The dissociation constant k−1 was measured by exchanging of the ureas with another amine and calculated through linear regression. […] In addition, the calculated k1 is larger than 10^5 M^−1·h^−1 indicating the urea formation can be completed within seconds upon mixing. […] The large value of Keq make it possible to prepare chemically stable aromatic hindered urea materials with quantitative conversion.
The binding constant (Keq) was measured through indirect method used previously. […] Briefly, the of Keq of the equilibrium was measured in d-chloroform and the Keq of each aryl urea was calculated accordingly. […]

[3] = Dissociation constant k−1 of hindered ureas by amine exchange experiment (1H NMR, d-chloroform); type: physicochemical; conditions: room temperature
Procedure: as §1
The dissociation constant (k−1) of corresponding hinder ureas were determined through exchange experiment. Briefly, a d-chloroform (550 μL) solution of tBEU (0.050 mmol, ˜12 mg) was mixed with N-methyl-t-butyl-amine (1 eq). Then the mixture was monitored with ^1H NMR. The ratio of the two ureas was quantified by integration of the methyl/methylene hydrogen adjacent to the nitrogen atom. Linear regression of ln
[formula] ˜t giving the slope as the dissociation constant (k−1).
The method for tBEU was used except that 10 equivalent t-butylamine or n-butyl amine was used.
The dynamic behavior of the aromatic urea was then investigated by exchanging the tBEU with methyl-t-butylamine and the relative concentration of all species were monitored by ^1H NMR. […] In contrast, the aliphatic tBEU requires several days to reach equilibrium at 37° C. Through linear regression of the exchange component, the dissociate rate of the ureas were determined to be 5-12 h^−1 at room temperature, which is two order of magnitude higher than the aliphatic counterpart. […] SeeYing, H.; Zhang, Y.; Cheng, J. Nat. Commun. 2014, 5, 3218, which is incorporated by reference herein in its entirety.

[4] = cited from earlier work
[5] = aliphatic HUB, adapted from Ying et al. Nat. Commun. 2014; cited from earlier work

Compound | apparent hydrolysis constant kobs ([1]; 23° C. as printed) [h⁻¹] | pH dependence of observed hydrolysis constant kobs ([1]; pH ranging from 3-11) | Keq [2] [M⁻¹] | k1 (calculated as Keq × k−1) [3] [M⁻¹ h⁻¹] | k−1 (dissociation rate) [3] [h⁻¹] | time for exchange to reach equilibrium ([4]; aliphatic tBEU, 37° C.) | k−1 (dissociation rate) ([4]; reported aliphatic urea) [h⁻¹] | Keq [5] [M⁻¹]
CCN(C(=O)Nc1ccccc1)C(C)(C)C [compound 2, phenyl-N-tetrabutyl-N-ethyl urea] | 0.17 | independent of pH | 360000 | 3.2e+06 | 8.9 | – | – | –
C=C(C)C(=O)OCCNC(=O)N(CC)C(C)(C)C [compound 4] | – | – | – | 33000 | – | several days | 0.042 | 790000
CCN(C(=O)Nc1ccc([N+](=O)[O-])cc1)C(C)(C)C [compound 3] | – | – | 6.8e+06 | 3.9e+07 | 5.7 | – | – | –
CCN(C(=O)Nc1ccc(OC)cc1)C(C)(C)C [compound 1] | – | – | 81000 | 900000 | 11.2 | – | – | –
